± gives the standard deviation of the averaged measurements.
Tests used:
NILOTINIB = compound: Cc1cn(-c2cc(NC(=O)c3ccc(C)c(Nc4nccc(-c5cccnc5)n4)c3)cc(C(F)(F)F)c2)cn1 [NILOTINIB]; assay: surviving fraction relative to DMSO-only wells; higher = less growth inhibition; conditions: exposure time: 5 days
Outline: (§1)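 Viability was determined by CellTiter-Glo luminescence, expressed as surviving fraction normalised to the median of DMSO-only wells. The cells were log-phase tumour cell lines seeded at 250–500 per well in 384-well plates and, after 24 hours, exposed continuously for five days to inhibitors at 0.5, 1, 5, 10, 50, 100, 500 and 1000 nM. Three screens per line were run, keeping only lines with replicate Pearson r >0.7 and median Z' >0.3.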

BEZ-235 = compound: Cn1c(=O)n(-c2ccc(C(C)(C)C#N)cc2)c2c3cc(-c4cnc5ccccc5c4)ccc3ncc21 [BEZ-235]; assay: as above; conditions: exposure time: 5 days
Outline: as §1

Row | Test System | surviving fraction (NILOTINIB; 0.5 nM) | surviving fraction (NILOTINIB; 1 nM) | surviving fraction (NILOTINIB; 5 nM) | surviving fraction (NILOTINIB; 10 nM) | surviving fraction (NILOTINIB; 50 nM) | surviving fraction (NILOTINIB; 100 nM) | surviving fraction (NILOTINIB; 500 nM) | surviving fraction (NILOTINIB; 1000 nM) | surviving fraction (BEZ-235; 0.5 nM) | surviving fraction (BEZ-235; 1 nM) | surviving fraction (BEZ-235; 5 nM) | surviving fraction (BEZ-235; 10 nM) | surviving fraction (BEZ-235; 50 nM) | surviving fraction (BEZ-235; 100 nM) | surviving fraction (BEZ-235; 500 nM) | surviving fraction (BEZ-235; 1000 nM)
1 | CAL120 BREAST | 1.02 ± 0.041 | 1.02 ± 0.012 | 1.04 ± 0.052 | 1.03 ± 0.035 | 1.04 ± 0.027 | 1.01 ± 0.072 | 1.04 ± 0.081 | 1.02 ± 0.049 | 0.962 ± 0.022 | 0.9768 ± 0.0038 | 0.98 ± 0.011 | 0.911 ± 0.017 | 0.502 ± 0.029 | 0.296 ± 0.0058 | 0.102 ± 0.0053 | 0.0963 ± 0.0037
2 | SG28 HEADNECK | 1.07 ± 0.044 | 1.05 ± 0.025 | 1.07 ± 0.062 | 1.07 ± 0.042 | 0.782 ± 0.042 | 0.907 ± 0.068 | 0.84 ± 0.013 | 0.903 ± 0.067 | 1.13 ± 0.053 | 1.09 ± 0.085 | 0.945 ± 0.2 | 0.965 ± 0.063 | 0.762 ± 0.053 | 0.632 ± 0.087 | 0.459 ± 0.039 | 0.342 ± 0.032
3 | SG31 HEADNECK | 1.24 ± 0.13 | 1.2 ± 0.13 | 1.08 ± 0.11 | 1.24 ± 0.21 | 1.14 ± 0.081 | 1.26 ± 0.17 | 1.02 ± 0.15 | 1.16 ± 0.13 | 1.1 ± 0.15 | 1.138 ± 0.0095 | 0.946 ± 0.091 | 1.02 ± 0.15 | 0.602 ± 0.088 | 0.569 ± 0.042 | 0.354 ± 0.029 | 0.289 ± 0.028
4 | OSHN BONE | 1.02 ± 0.017 | 1.01 ± 0.023 | 1.06 ± 0.025 | 1.01 ± 0.029 | 0.996 ± 0.034 | 1 ± 0.033 | 0.967 ± 0.02 | 0.96 ± 0.026 | 1.07 ± 0.033 | 1.09 ± 0.044 | 1.06 ± 0.029 | 1.08 ± 0.03 | 1.12 ± 0.013 | 1.12 ± 0.026 | 0.828 ± 0.02 | 0.623 ± 0.0072

From the supplement of paper PMC6045584
